According to PMC7176092, “Development of the first in vivo GPR17 ligand through an iterative drug discovery pipeline: A novel disease-modifying strategy for multiple sclerosis” (PLoS ONE, 2020):
Marks after values point to notes of the source that are not given here.

What was measured:
human GPR17 = molecular target: T1, human GPR17 (Homo sapiens, UniProt Q13304); experiment: [35S]GTPγS binding assay; format: biochemical; conditions: for EC50: membranes of 1321N1 cells transfected with human GPR17, mean ± SEM of 3 experiments
T1 construct: HA; expressed in transfected cells
T1 sequence (Q13304 29-367): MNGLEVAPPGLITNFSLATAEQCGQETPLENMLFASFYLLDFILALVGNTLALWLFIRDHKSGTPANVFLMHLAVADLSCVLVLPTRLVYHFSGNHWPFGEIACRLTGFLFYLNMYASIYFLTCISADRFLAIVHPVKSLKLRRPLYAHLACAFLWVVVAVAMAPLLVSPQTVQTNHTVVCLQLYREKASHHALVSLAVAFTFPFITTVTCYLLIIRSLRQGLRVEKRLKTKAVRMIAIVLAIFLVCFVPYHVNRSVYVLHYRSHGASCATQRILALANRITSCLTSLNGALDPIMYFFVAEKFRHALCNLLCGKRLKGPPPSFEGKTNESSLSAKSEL
Description: [^35S]GTPγS binding assays were carried out as previously described. Briefly, control and astrocytoma 1321N1 cells stably transfected with human pcDNA3.1 (control cells) and human HA-tag GPR17 were homogenized in 5 mM Tris/HCl and 2 mM EDTA (pH 7.4) and centrifuged at 48,000g for 15 min at 4°C. The resulting pellets were washed in 50 mM Tris/HCl and 10 mM MgCl2 (pH 7.4). After protein dosage, aliquots of cell membranes were incubated with increasing concentrations of each investigated ligand (1 pM–10 μM) and GTPγS binding to activated G-proteins was quantified as previously described. Compounds were purchased from two external providers, i.e., Ambinter (Ambinter c/o Greenpharma, Orléans, France http://www.ambinter.com/) and Asinex (http://www.asinex.com/).
For analysis and graphic presentation of [^35S]GTPγS binding data, a nonlinear multipurpose curve fitting computer program (Graph-Pad Prism) was used. All data are presented as the mean ± SEM of three different experiments.
The selected 15 molecules were evaluated in our in-house [^35S]GTPγS functional assay in membranes from cells transfected with human GPR17. […] Moreover, this assay has been already successfully used in the past to measure the ability of both endogenous and novel synthetic compounds to activate GPR17 [25, 31]. All tested molecules were able to potently activate GPR17 with nanomolar/sub-nanomolar affinities. Concentration-response curves obtained for each selected compound are reported in S4 Fig.

mGluR5 = molecular target: T2, mGluR5 (Homo sapiens, UniProt P41594); experiment: Binding assay mGluR5; conditions: reference compound
T2 construct: Eurofins Cerep (external service)
T2 sequence (P41594 21-1212): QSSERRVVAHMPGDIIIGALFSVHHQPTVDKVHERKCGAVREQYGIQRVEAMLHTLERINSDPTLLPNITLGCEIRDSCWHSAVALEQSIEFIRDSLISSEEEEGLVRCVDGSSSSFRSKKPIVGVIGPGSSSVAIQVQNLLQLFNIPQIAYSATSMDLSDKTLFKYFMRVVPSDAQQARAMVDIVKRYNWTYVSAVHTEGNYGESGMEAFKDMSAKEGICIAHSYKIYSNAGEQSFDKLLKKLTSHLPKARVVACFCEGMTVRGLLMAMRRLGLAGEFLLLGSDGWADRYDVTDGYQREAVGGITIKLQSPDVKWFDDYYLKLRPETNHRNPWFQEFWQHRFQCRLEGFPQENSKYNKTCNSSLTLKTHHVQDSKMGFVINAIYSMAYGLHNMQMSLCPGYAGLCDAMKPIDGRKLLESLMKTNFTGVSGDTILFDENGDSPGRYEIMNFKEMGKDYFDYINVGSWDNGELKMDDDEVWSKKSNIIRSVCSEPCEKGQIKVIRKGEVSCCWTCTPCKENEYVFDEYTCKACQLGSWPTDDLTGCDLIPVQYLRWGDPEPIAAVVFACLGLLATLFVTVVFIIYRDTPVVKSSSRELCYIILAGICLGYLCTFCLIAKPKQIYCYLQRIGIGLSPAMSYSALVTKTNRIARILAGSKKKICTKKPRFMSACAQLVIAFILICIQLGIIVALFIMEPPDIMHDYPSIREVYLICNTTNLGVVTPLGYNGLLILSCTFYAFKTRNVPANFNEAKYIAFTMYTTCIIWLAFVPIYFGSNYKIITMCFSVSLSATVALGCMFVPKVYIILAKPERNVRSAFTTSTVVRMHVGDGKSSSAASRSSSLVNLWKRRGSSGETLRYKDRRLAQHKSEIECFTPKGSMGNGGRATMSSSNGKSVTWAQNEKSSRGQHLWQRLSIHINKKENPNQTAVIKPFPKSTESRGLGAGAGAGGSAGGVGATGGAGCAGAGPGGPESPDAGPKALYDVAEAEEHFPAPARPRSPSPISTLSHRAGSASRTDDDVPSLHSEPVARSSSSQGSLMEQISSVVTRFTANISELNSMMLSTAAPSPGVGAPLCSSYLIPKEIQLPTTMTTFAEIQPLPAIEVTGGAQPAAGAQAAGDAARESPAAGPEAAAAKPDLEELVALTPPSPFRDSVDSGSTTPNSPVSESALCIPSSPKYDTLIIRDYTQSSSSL

CXCR2 = molecular target: T3, CXCR2 (Homo sapiens, UniProt P25025); experiment: Binding assay CXCR2; conditions: reference compound
T3 construct: Eurofins Cerep (external service)
T3 sequence (P25025 1-360): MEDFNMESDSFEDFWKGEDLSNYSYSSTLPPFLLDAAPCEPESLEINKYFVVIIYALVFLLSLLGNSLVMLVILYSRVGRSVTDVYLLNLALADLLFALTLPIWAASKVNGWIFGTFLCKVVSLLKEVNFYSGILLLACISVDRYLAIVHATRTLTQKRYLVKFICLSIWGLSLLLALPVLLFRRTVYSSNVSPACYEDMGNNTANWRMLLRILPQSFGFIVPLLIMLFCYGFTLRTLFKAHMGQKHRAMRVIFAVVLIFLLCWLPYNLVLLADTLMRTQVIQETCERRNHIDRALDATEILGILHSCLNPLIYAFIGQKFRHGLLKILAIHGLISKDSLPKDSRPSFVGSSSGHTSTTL

CCR2 = molecular target: T4, CCR2 (Homo sapiens, UniProt P41597); experiment: Binding assay CCR2; conditions: reference compound
T4 construct: Eurofins Cerep (external service)
T4 sequence (P41597 whole entry): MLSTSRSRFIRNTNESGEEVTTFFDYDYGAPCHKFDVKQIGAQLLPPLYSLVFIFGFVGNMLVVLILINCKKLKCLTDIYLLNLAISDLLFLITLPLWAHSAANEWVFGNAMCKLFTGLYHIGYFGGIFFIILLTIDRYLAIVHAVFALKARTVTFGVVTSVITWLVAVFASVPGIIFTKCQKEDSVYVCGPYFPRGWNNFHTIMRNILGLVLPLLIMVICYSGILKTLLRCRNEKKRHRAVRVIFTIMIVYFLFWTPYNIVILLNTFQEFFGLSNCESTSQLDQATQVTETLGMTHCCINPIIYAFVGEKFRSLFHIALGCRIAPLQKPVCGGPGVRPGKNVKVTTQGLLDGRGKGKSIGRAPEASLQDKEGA

[1] = standard LTD4 50 nM set to 100% († compounds)
[2] = standard LTC4 50 nM set to 100% (¶ compounds)

## Cn1c(SCC(=O)Nc2ccc(Cl)cc2)nnc1-c1ccc(NC(=O)c2ccccc2)cc1 [Compound 4]
Human GPR17
  EC50: 0.43 ± 0.08 nM
Human GPR17; [1]
  % Emax (ratio vs Emax of the standard): 110.8%
Human GPR17; mean ± SEM
  Emax (% vs basal): 160.0 ± 10.6%

## CCc1ccccc1-n1c(SCC(=O)Nc2ccccc2Cl)nnc1-c1ccccc1O [Compound 6]
Human GPR17
  EC50: 0.52 ± 0.09 nM
Human GPR17; [1]
  % Emax (ratio vs Emax of the standard): 93.5 ^* %
Human GPR17; mean ± SEM
  Emax (% vs basal): 135.0 ± 10.2%

## Cc1cccc(-c2n[nH]c(SCC(=O)Nc3cccc4ccccc34)n2)c1 [Compound 7]
Human GPR17
  EC50: 0.48 ± 0.09 nM
Human GPR17; [1]
  % Emax (ratio vs Emax of the standard): 104.8%
Human GPR17; mean ± SEM
  Emax (% vs basal): 151.3 ± 6.7%

## Cc1nc2ccc(NC(=O)CSc3nnc(-c4ccccc4)[nH]3)cc2[nH]1 [Compound 8]
Human GPR17
  EC50: 0.24 ± 0.02 nM
Human GPR17; [1]
  % Emax (ratio vs Emax of the standard): 100.3%
Human GPR17; mean ± SEM
  Emax (% vs basal): 144.8 ± 6.4%

## Cc1cccc(-c2n[nH]c(SCC(=O)Nc3ccccc3)n2)c1 [Compound 10]
Human GPR17
  EC50: 0.24 ± 0.06 nM
Human GPR17; [1]
  % Emax (ratio vs Emax of the standard): 98.3%
Human GPR17; mean ± SEM
  Emax (% vs basal): 142.0 ± 5.8%

## COc1ccc(-n2c(SCC(=O)Nc3cc(C(C)(C)C)no3)nnc2-c2ccccc2OC)cc1 [Compound 11]
Human GPR17
  EC50: 22.5 ± 4.3 nM
Human GPR17; [2]
  % Emax (ratio vs Emax of the standard): 95.3%
Human GPR17; mean ± SEM
  Emax (% vs basal): 134.3 ± 8.8%

## CCOc1ccc(-n2c(SCC(=O)Nc3ccc(Cl)c(C(F)(F)F)c3)nnc2-c2cccc(C)c2)cc1 [Compound 12]
Human GPR17
  EC50: 7.11 ± 1.96 nM
Human GPR17; [2]
  % Emax (ratio vs Emax of the standard): 90.6 ^* %
Human GPR17; mean ± SEM
  Emax (% vs basal): 127.7 ± 4.1%

## CCOc1ccc(-n2c(SCC(=O)Nc3ccc4c(c3)OCCO4)nnc2-c2ccccc2Cl)cc1 [Compound 13]
Human GPR17
  EC50: 3.29 ± 0.28 nM
Human GPR17; [2]
  % Emax (ratio vs Emax of the standard): 100.2%
Human GPR17; mean ± SEM
  Emax (% vs basal): 141.3 ± 7.6%

## COc1ccc(-c2nnc(SCC(=O)Nc3ncc(Cc4ccc(Cl)cc4)s3)n2-c2ccccc2)cc1OC [Compound 14]
Human GPR17
  EC50: 2.7 ± 0.4 nM
Human GPR17; [2]
  % Emax (ratio vs Emax of the standard): 98.8%
Human GPR17; mean ± SEM
  Emax (% vs basal): 139.3 ± 2.5%

## COc1ccccc1-c1nnc(SCC(=O)Nc2ncc3c(n2)CCCC3=O)[nH]1 [Compound 15]
Human GPR17
  EC50: 2.9 ± 0.1 nM
Human GPR17; [2]
  % Emax (ratio vs Emax of the standard): 97.23%
Human GPR17; mean ± SEM
  Emax (% vs basal): 137.1 ± 1.3%

## COc1ccccc1-c1nnc(SCC(=O)Nc2ncc3c(n2)CC(C)(C)CC3=O)[nH]1 [Compound 16]
Human GPR17
  EC50: 3.45 ± 0.5 nM
Human GPR17; [2]
  % Emax (ratio vs Emax of the standard): 99.0%
Human GPR17; mean ± SEM
  Emax (% vs basal): 139.6 ± 1.5%

## COc1ccccc1-c1nnc(SCC(=O)Nc2nccs2)[nH]1 [Compound 17]
Human GPR17
  EC50: 8.48 ± 0.9 nM
Human GPR17; [2]
  % Emax (ratio vs Emax of the standard): 96.6%
Human GPR17; mean ± SEM
  Emax (% vs basal): 136.2 ± 0.5%

## O=C(CSc1nnc2n(Cc3ccc(Cl)cc3)c3ccccc3n12)N1CCc2ccccc2C1 [Compound 19]
Human GPR17
  EC50: 9.5 ± 1.47 nM
Human GPR17; [2]
  % Emax (ratio vs Emax of the standard): 108.5 ^* %
Human GPR17; mean ± SEM
  Emax (% vs basal): 153.7 ± 1.1%

## N[C@@H](Cn1oc(=O)[nH]c1=O)C(=O)O [L-Quisqualate, reference compound]
mGluR5
  IC50: 67 nM
  Ki: 14 nM

## CCCCC/C=C\C\C=C/C=C/C=C/[C@@H](SC[C@H](NC(=O)CC[C@H](N)C(=O)O)C(=O)NCC(=O)O)[C@@H](O)CCCC(=O)O [LTC4, reference compound]
Human GPR17; reference agonist at 50 nM
  Emax (% vs basal): 141.0 ± 3.9%

## CCCCC/C=C\C\C=C/C=C/C=C/[C@@H](SC[C@H](N)C(=O)NCC(=O)O)[C@@H](O)CCCC(=O)O [LTD4, reference compound]
Human GPR17; reference agonist at 50 nM
  Emax (% vs basal): 144.4 ± 7.1%

## IL-8: chemokine, reference compound for CXCR2 binding
CXCR2
  IC50: 0.26 nM
  Ki: 0.12 nM

## MCP-1: chemokine, reference compound for CCR2 binding
CCR2
  IC50: 0.072 nM
  Ki: 0.029 nM
